Results taken from the NIST ThermoML archive (doi:10.1016/j.jct.2013.09.024).
Numbers after ± are expanded uncertainties.

Assay: excess molar enthalpy (molar enthalpy of mixing); xn = mol fraction of the nth substance listed
Conditions: 101 kPa, Liquid, Flow calorimetry

## CC1(C)C(=O)[C@]2(C)CC[C@H]1C2 [(-)-fenchone] + CCO
283.15 K, x1 = 0.048
  excess molar enthalpy: 0.0418 ± 0.00311 kcal/mol
283.15 K, x1 = 0.097
  excess molar enthalpy: 0.0805 ± 0.00502 kcal/mol
283.15 K, x1 = 0.195
  excess molar enthalpy: 0.141 ± 0.0086 kcal/mol
283.15 K, x1 = 0.286
  excess molar enthalpy: 0.184 ± 0.0112 kcal/mol
283.15 K, x1 = 0.395
  excess molar enthalpy: 0.218 ± 0.0131 kcal/mol
283.15 K, x1 = 0.488
  excess molar enthalpy: 0.23 ± 0.0139 kcal/mol
283.15 K, x1 = 0.601
  excess molar enthalpy: 0.229 ± 0.0139 kcal/mol
283.15 K, x1 = 0.701
  excess molar enthalpy: 0.21 ± 0.0127 kcal/mol
283.15 K, x1 = 0.801
  excess molar enthalpy: 0.172 ± 0.0105 kcal/mol
283.15 K, x1 = 0.894
  excess molar enthalpy: 0.104 ± 0.00645 kcal/mol
283.15 K, x1 = 0.945
  excess molar enthalpy: 0.0569 ± 0.00382 kcal/mol
298.15 K, x1 = 0.048
  excess molar enthalpy: 0.0476 ± 0.00335 kcal/mol
298.15 K, x1 = 0.097
  excess molar enthalpy: 0.0913 ± 0.00574 kcal/mol
298.15 K, x1 = 0.195
  excess molar enthalpy: 0.159 ± 0.0098 kcal/mol
298.15 K, x1 = 0.286
  excess molar enthalpy: 0.209 ± 0.0127 kcal/mol
298.15 K, x1 = 0.395
  excess molar enthalpy: 0.249 ± 0.0151 kcal/mol
298.15 K, x1 = 0.488
  excess molar enthalpy: 0.265 ± 0.016 kcal/mol
298.15 K, x1 = 0.601
  excess molar enthalpy: 0.262 ± 0.0158 kcal/mol
298.15 K, x1 = 0.701
  excess molar enthalpy: 0.239 ± 0.0146 kcal/mol
298.15 K, x1 = 0.801
  excess molar enthalpy: 0.193 ± 0.0117 kcal/mol
298.15 K, x1 = 0.894
  excess molar enthalpy: 0.12 ± 0.00741 kcal/mol
298.15 K, x1 = 0.945
  excess molar enthalpy: 0.065 ± 0.00454 kcal/mol
313.15 K, x1 = 0.048
  excess molar enthalpy: 0.0528 ± 0.00382 kcal/mol
313.15 K, x1 = 0.097
  excess molar enthalpy: 0.102 ± 0.00645 kcal/mol
313.15 K, x1 = 0.195
  excess molar enthalpy: 0.178 ± 0.0108 kcal/mol
313.15 K, x1 = 0.286
  excess molar enthalpy: 0.234 ± 0.0141 kcal/mol
313.15 K, x1 = 0.395
  excess molar enthalpy: 0.278 ± 0.0167 kcal/mol
313.15 K, x1 = 0.488
  excess molar enthalpy: 0.297 ± 0.0179 kcal/mol
313.15 K, x1 = 0.601
  excess molar enthalpy: 0.291 ± 0.0177 kcal/mol
313.15 K, x1 = 0.701
  excess molar enthalpy: 0.264 ± 0.016 kcal/mol
313.15 K, x1 = 0.801
  excess molar enthalpy: 0.211 ± 0.0129 kcal/mol
313.15 K, x1 = 0.894
  excess molar enthalpy: 0.131 ± 0.00813 kcal/mol
313.15 K, x1 = 0.945
  excess molar enthalpy: 0.071 ± 0.00502 kcal/mol
328.15 K, x1 = 0.048
  excess molar enthalpy: 0.0586 ± 0.00406 kcal/mol
328.15 K, x1 = 0.097
  excess molar enthalpy: 0.112 ± 0.00693 kcal/mol
328.15 K, x1 = 0.195
  excess molar enthalpy: 0.196 ± 0.012 kcal/mol
328.15 K, x1 = 0.286
  excess molar enthalpy: 0.258 ± 0.0155 kcal/mol
328.15 K, x1 = 0.395
  excess molar enthalpy: 0.306 ± 0.0186 kcal/mol
328.15 K, x1 = 0.488
  excess molar enthalpy: 0.326 ± 0.0198 kcal/mol
328.15 K, x1 = 0.601
  excess molar enthalpy: 0.318 ± 0.0194 kcal/mol
328.15 K, x1 = 0.701
  excess molar enthalpy: 0.286 ± 0.0174 kcal/mol
328.15 K, x1 = 0.801
  excess molar enthalpy: 0.227 ± 0.0139 kcal/mol
328.15 K, x1 = 0.894
  excess molar enthalpy: 0.14 ± 0.00884 kcal/mol
328.15 K, x1 = 0.945
  excess molar enthalpy: 0.076 ± 0.00526 kcal/mol
